Source: PMC3017052, “A Novel Peptide Derived from Human Apolipoprotein E Is an Inhibitor of Tumor Growth and Ocular Angiogenesis” (PLoS ONE, 2011)

Tests used:
Format in all cases: cell-based, human
HUVEC [1] = conditions: 48 h
Method: To confirm that apoEdp affects cell survival, cell viability was determined using the cell titer 96®AQuous One solution cell proliferation kit. ApoEdp treatment of HUVECs induced a dose-dependent inhibition of cell viability (Fig. 1A). […] To determine whether apoEdp suppresses tumor growth by directly affecting tumor cells, we performed a cell viability assay using human breast cancer MDA-MB-231 cell line in vitro and cell titer 96®AQuous One solution cell proliferation kit.
Figure 1 ApoEdp affects HUVEC survival but not MDA-MB-231. A. HUVEC: ApoEdp has a significant effect on VEGF-induced HUVEC viability. Cells were treated with apoEdp at the indicated concentrations and incubated with constant 50 ng/mL VEGF for 48 hr. All values were normalized to cell control of no VEGF and no apoEdp. Cell viability values (mean ± SEM) are expressed as % of the value of the VEGF control. B. MDA-MB-231: ApoEdp has no effect on MDA-MB-231viability. ApoEdp has no significant effect on MDA-MB-231 survival. Cells were treated with apoEdp at the indicated concentrations and incubated at 37°C for 2 days. Cell viability values (mean ± SEM) are expressed as % of the value of the control (untreated cells). […]
The effect of apoEdp on ED survival was evaluated. […] Two days later, cell numbers were determined using the CellTiter96 AQueous One solution cell proliferation kit (Promega, Madison, WI).

HUVEC [2] = assay: Wound-healing/migration assay; conditions: 50 ng/mL VEGF, apoEdp 6–100 µM, three independent experiments; read-out: IC50, inhibition of VEGF-induced HUVEC wound-healing migration
Method: An important angiogenic phenotype of ECs induced by VEGF is cell migration. The major aspects of VEGF action on ECs are its ability to act as a chemoattractant and to stimulate the angiogenic morphogenesis. […] Cell migration was examined after simulation of an artificial wound by perturbation of a cell monolayer using a 1-mL pipette tip. […] (Fig. 2C).
Figure 2 ApoEdp inhibits wound-healing migration in vitro. Monolayers of HUVECs were scraped and incubated in medium containing 50 ng/mL VEGF in the presence or absence of various concentrations of apoEdp. VEGF stimulated the migration of HUVECs in the scraped area. Representative photomicrographs of cells treated with (A) VEGF alone or with (B) VEGF and apoEdp together are shown. Solid lines indicate the initial scraping. […] The bar diagram is the quantitative measurement of cell migration inside the scraped area. The data shown are representative of three independent experiments. ** p<0. 01; and *** p<0.001.
To determine the effect of apoEdp on EC migration induced by VEGF, wound-healing assays were performed using HUVEC cells. Cells were allowed to grow to confluency on 6-well plates and washed twice with PBS. […] Migration of the cells into the wounded area was photographed with an Olympus U-RLF-T microscope and counted. […]

HUVEC [3] = assay: Boyden chamber migration/invasion assay; conditions: Boyden chamber transwell, 50 ng/mL VEGF, 16 hr at 37°C, apoEdp 6–100 µM; read-out: IC50, inhibition of VEGF-induced HUVEC migration and invasion
Excerpt: The complex process of new blood vessel formation involves migration and invasion of ECs. The inhibition of EC motility through migration and invasion could thus be expected to affect the angiogenic process. To evaluate the ability of apoEdp in blocking VEGF-induced HUVEC migration and invasion, we used a Boyden chamber transwell assay (Materials and Methods). We quantified the invasion of HUVECs across the transwell. Cells which invaded across the membrane were stained with hematoxylin and eosin stain and counted (Fig. 4A–B). […] All values were normalized to cell numbers of transwells exposed to EBM containing 1% FBS without apoEdp and VEGF.
Figure 4 ApoEdp inhibits endothelial cell invasion. About 4×10^4 HUVECs were placed into each insert of Boyden chamber ([…]) (BD Biosciences) of 24-well transwell plate. The bottom chambers were filled with 600 µL medium supplemented with 50 ng/mL VEGF. The top chamber was seeded with approximately 4×10^4 HUVEC cells/well in 100 µL containing different concentrations of apoEdp and incubated at 37°C for 16 hs. HUVEC cells were then fixed and stained with H&E and counted under the microscope. […]
Boyden chamber migration/invasion assays were performed. […] Transwell invaded cells were counted using an inverted microscope. Three independent areas per filter were counted, and the mean ± SEM number of migrated cells was calculated.

Substance: Ac-LRKLRKRLLLRKLRKRLL-NH2 [apoEdp]
- 50% cytotoxicity (CC50), HUVEC viability (HUVEC [1]): about 103 µM
- IC50 (HUVEC [2]): ~21.5 µM
- IC50 (HUVEC [3]): ~31.5 µM
